IC50 data for 25 compounds are collected here from patent US9902739B2, “Small molecule inhibitors of G protein coupled receptor 6 kinases polypeptides” (Mayo Foundation for Medical Education and Research, priority 2014, dated 2018).

Each structure is given as a SMILES string. Where only a bound is given, the exact number is not on record here.

For the assay, the target named is T1, GRK6, recombinant full-length GST-tagged human protein (Homo sapiens, UniProt P43250).
T1 construct: Enzyme: 20 nM GRK6, recombinant full-length GST-tagged human protein; GST
T1 sequence (P43250 whole entry): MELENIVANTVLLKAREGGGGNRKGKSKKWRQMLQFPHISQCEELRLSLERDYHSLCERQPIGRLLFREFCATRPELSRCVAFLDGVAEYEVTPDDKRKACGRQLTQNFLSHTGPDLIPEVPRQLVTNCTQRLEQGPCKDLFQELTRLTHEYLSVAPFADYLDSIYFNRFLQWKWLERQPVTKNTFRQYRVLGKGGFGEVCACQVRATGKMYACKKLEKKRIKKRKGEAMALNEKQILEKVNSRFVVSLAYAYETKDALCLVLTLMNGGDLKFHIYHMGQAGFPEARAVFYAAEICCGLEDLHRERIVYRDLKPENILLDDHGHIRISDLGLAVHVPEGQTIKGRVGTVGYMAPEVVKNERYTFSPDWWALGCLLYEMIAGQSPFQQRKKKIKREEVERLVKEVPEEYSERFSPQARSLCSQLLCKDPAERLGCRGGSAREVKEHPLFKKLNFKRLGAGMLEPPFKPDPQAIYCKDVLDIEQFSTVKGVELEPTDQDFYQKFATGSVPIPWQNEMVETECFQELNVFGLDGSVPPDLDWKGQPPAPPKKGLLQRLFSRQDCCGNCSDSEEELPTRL
Description: GRK6 assay, IC50 determination (8-point concentration-response). Type of assay: biochemical. Conditions: Series 4 (Table 14); conditions as Example 18. The gist of the method: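 Full-length GST-tagged human GRK6 (20 nM) with 1 μM Peptide 216 in 50 mM TRIS-HCl pH 7.5, 5 mM MgCl2, 2 mM DTT, 0.01% Triton X-100, 1% DMSO. IC50 from 8-point singlicate concentration-response, top 60 μM, 3-fold steps; compounds inhibiting >50% at all concentrations retested at lower range.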
As a reminder, the IC50 is the concentration at which inhibition is half-maximal. For `Cc1csc2sc(-c3nnc(SCC(=O)O)[nH]3)c(C)c12` [Compound 4-29], the IC50 worked out at 27.3 µM.

Regarding `Cc1ncc(-c2nnc(SCC(=O)O)[nH]2)cn1` [Compound 4-30], the IC50 was found to be 27.8 µM.

`CSc1nc(-c2nnc(SCC(=O)O)[nH]2)ccc1C#N` [Compound 4-31]: the IC50 was 31.2 µM.

On to `COc1cccc(-c2nnc(SCC(=O)O)[nH]2)n1` [Compound 4-32], for which the 50% inhibitory concentration (IC50) is 32.5 µM.

For `O=C(O)CSc1nnc(-c2ccc(Cl)cn2)[nH]1` [Compound 4-33], the IC50 came to 35.3 µM.

With `Cn1c(-c2nnc(SCC(=O)O)[nH]2)cc2ccccc21` [Compound 4-34], the IC50 stood at 38.8 µM.

For the compound `O=C(O)CSc1nnc(-c2ccc(F)cn2)[nH]1` [Compound 4-35], the IC50 was 78.7 µM.

With `CCc1nc(C)c(-c2nnc(SCC(=O)O)[nH]2)[nH]1` [Compound 4-36], the IC50 was determined as 82.7 µM.

`Cn1cc(Cl)c(-c2nnc(SCC(=O)O)[nH]2)n1` [Compound 4-37]: the IC50 was found to be 89.2 µM.

Regarding `Cc1c(-c2nnc(SCC(=O)O)[nH]2)cnn1C` [Compound 4-38], the IC50 came to 95.4 µM.

As to `NC(=O)Cn1cc(-c2nnc(SCC(=O)O)[nH]2)c2ccccc21` [Compound 4-39], the IC50 was greater than 100 µM.

As for `Cc1noc(C)c1-c1nnc(SCC(=O)O)[nH]1` [Compound 4-40], the IC50 was greater than 100 µM.

Take `O=C(O)CSc1nnc(-c2cccnc2N2CCOCC2)[nH]1` [Compound 4-41]: the IC50 was greater than 100 µM.

With `O=C(O)CSc1nnc(-c2cc3cccc4c3n(c2=O)CC4)[nH]1` [Compound 4-42], the half-maximal inhibitory concentration (IC50) is greater than 100 µM.

As for `Cc1nc(C)c(-c2nnc(SCC(=O)O)[nH]2)s1` [Compound 4-43], the IC50 was greater than 100 µM.

With `O=C(O)CSc1nnc(-c2cccn2S(=O)(=O)c2ccccc2)[nH]1` [Compound 4-44], the IC50 was greater than 100 µM.

Consider `O=C(O)CSc1nnc(-c2ccc3cccnc3n2)[nH]1` [Compound 4-45], for which the IC50 is greater than 86 µM.

As to `Cc1nc(-c2nnc(SCC(=O)O)[nH]2)c2ccccn12` [Compound 4-46], the concentration for half-maximal inhibition (IC50) was greater than 80 µM.

Take `CC(C)(C)C(=O)Nc1ncccc1-c1nnc(SCC(=O)O)[nH]1` [Compound 4-47]: the IC50 is greater than 64 µM.

On to `O=C(O)CSc1nnc(-c2ccc(C(F)(F)F)nc2)[nH]1` [Compound 4-48], for which the IC50 is greater than 54 µM.

For `O=C(O)CSc1nnc(-c2c[nH]c3ccccc23)[nH]1` [Compound 4-49], the IC50 was greater than 100 µM.

Regarding `Cc1nc[nH]c1-c1nnc(SCC(=O)O)[nH]1` [Compound 4-50], the IC50 was greater than 100 µM.

For `Cc1ncsc1-c1nnc(SCC(=O)O)[nH]1` [Compound 4-51], the 50% inhibitory concentration (IC50) was greater than 100 µM.

For the compound `Cc1nc(-c2nnc(SCC(=O)O)[nH]2)c[nH]1` [Compound 4-52], the IC50 was greater than 100 µM.

`COc1ccc2cc(-c3[nH]nc(SCC(=O)O)c3Br)ccc2c1` [Compound 4-53]: the IC50 was greater than 100 µM.
